{"source": "paper PMC4540712", "about": "“Development of a clickable bimodal fluorescent/PET probe for in vivo imaging” (EJNMMI Research, 2015)", "key": {"[1]": {"target": "T1, GRP receptor overexpressing PC-3 cells (Homo sapiens, UniProt P30550)", "T1 construct": "host or cells: PC-3 (human prostate cancer cell line)", "T1 sequence (P30550 whole entry)": "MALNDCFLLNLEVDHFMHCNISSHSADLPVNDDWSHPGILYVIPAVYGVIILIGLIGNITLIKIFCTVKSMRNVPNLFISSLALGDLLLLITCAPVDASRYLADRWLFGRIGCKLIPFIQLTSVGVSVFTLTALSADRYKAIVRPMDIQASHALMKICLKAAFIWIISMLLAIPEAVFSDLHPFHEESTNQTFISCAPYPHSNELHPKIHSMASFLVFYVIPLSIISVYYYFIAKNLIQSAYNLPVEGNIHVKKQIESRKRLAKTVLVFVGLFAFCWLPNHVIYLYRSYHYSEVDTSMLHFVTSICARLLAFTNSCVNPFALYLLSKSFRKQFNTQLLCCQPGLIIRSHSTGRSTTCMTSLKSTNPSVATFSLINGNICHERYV", "test": "confocal live-cell imaging of uptake and blocking in PC-3 cells", "format": "cell-based", "conditions": "37 °C, 30 min", "method": "To determine BODIPY-BBN uptake in vitro, PC-3 cells (1.0 × 10^4 per well) were seeded in a two-well chamber slide (Nunc™ Lab-Tek™ II Chamber Slide™ System) containing growth media (1 mL) and incubated at 37 °C for 24 h. To study the uptake of BODIPY-BBN, PC-3 cells were incubated with 5 (10 nM in PBS, 37 °C for 30 min). At the same time blocking studies were performed. PC-3 cells were pre-incubated with RM2 (1000 nM in PBS, 37 °C for 5 min) before incubation with BODIPY-BBN (10 nM in PBS, 37 °C for 30 min). After washing with media (1.0 mL), blue whole cell stain was added and incubated at room temperature for 5 min. The cells were washed with PBS (3 × 1.0 mL), living cells were imaged using an inverted confocal microscope (Leica TCS SP5 II), and data were analyzed with Fiji.\n(§1) The binding of BODIPY-BBN 5 toward GRP receptor overexpressing PC-3 cells was evaluated in confocal live-cell imaging (Fig. 4a). After incubation of BODIPY-BBN 5 (10 nM, 30 min), cells were treated with blue whole cell stain (5 min) and washed with PBS. […] We also confirmed the binding affinity of BODIPY-BBN 5 using [^125I-Tyr^4]bombesin in a competitive binding assay (Fig. 4b). […] We then determined the stability of our imaging tracer in human serum (37 °C) at pre-determined time points showing >90 % intact fluorescent imaging agent after 60 min of incubation (Additional file 1: Figure S6)."}, "stability in human serum": {"test": "stability in human serum", "format": "in vitro ADME", "conditions": "37 °C, after 60 min of incubation, time points 0, 15, 30, 45, 60 min, fluorescence read-out", "method": "as §1\nFigure S6: Percent intact fluorescent ^19F-BODIPY-BBN in human serum at different time points (0, 15, 30, 45, and 60 min) after incubation at 37 °C."}}, "note": "Starred links: 1 amine or outer side, 2 acyl side, 3 side chain; linkers in the order of their positions; H or OH if unused. Non-standard residues stand in square brackets, D forms with d. Residues, ends and D or L forms follow the SMILES beside them. *: point of attachment. BODIPY(FL) = CC1=CC(C)=[N+]2C1=Cc1ccc(CCC(=O)*)n1[B-]2(F)F; X1 = O=C(CCc1cn(CCOCCOCCOCCN[*:1])nn1)[*:2]; Sta = CC(C)C[C@H](N)[C@@H](O)CC(=O)O; X2 = O=C(CN1CCC(N[*:1])CC1)[*:2]", "data": [{"smiles": "Cc1cc(C)n2c1C=C1C=CC(CCC(=O)NCCOCCOCCOCCn3cc(CCC(=O)NC4CCN(CC(=O)N[C@H](Cc5ccccc5)C(=O)N[C@@H](CCC(N)=O)C(=O)N[C@@H](Cc5c[nH]c6ccccc56)C(=O)N[C@@H](C)C(=O)N[C@H](C(=O)NCC(=O)N[C@@H](Cc5c[nH]cn5)C(=O)N[C@@H](CC(C)C)[C@@H](O)CC(=O)N[C@@H](CC(C)C)C(N)=O)C(C)C)CC4)nn3)=[N+]1[B-]2(F)F", "note": "[BODIPY-BBN 5] ({BODIPY(FL)}-[X1][X2][dF]QWAVGH[Sta]L-NH2)", "values": [{"measurement": "fluorescent signal after blocking (GRP receptor specificity)", "setting": "[1]; PC-3 cells pre-incubated with 100-fold excess of unlabeled GRP receptor antagonist (1000 nM, 5 min), then 10 nM probe", "result": "complete suppression of green fluorescent signal"}, {"measurement": "binding in confocal live-cell imaging", "setting": "[1]; PC-3 cells, 10 nM in PBS, green fluorescence", "result": "antagonist-specific binding"}, {"measurement": "intact fluorescent imaging agent in human serum", "setting": "stability in human serum", "result": "> 90", "unit": "%"}]}]}
